Reference: PubChem BioAssay AID1963958 (Molecular Pharmacology Branch, DTP, NCI, 2024)

System: MDA-MB-231 multicell spheroids, viability
Test: Anticancer human tumor MDA-MB-231 cell line growth inhibition [PI3K];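 further: spheroids exposed to agents for seven days before reading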;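 on viability, T/C: percent of vehicle control luminescence with DMSO treated spheroids as 100%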
Details: for IC50: curve of first compound; for viability, T/C: stronger effect = lower value
How it was run: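 Spheroid viability read-out. Co-cultures contained the tumor line plus HUVEC and human MSCs. Each agent was paired with a PI3K inhibitor (inavolisib, alpelisib, duvelisib, copanlisib) across half-log dilutions starting at clinical Cmax, or at 10 microM when Cmax was unknown.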

[1] = second compound 0.00316 µM, first compound 0.0316 µM
[2] = second compound 0.00316 µM, first compound 0.1 µM
[3] = second compound 0.00316 µM, first compound 0.316 µM
[4] = second compound 0.00316 µM, first compound 1 µM
[5] = second compound 0.00316 µM, first compound 3.16 µM
[6] = second compound 0.00316 µM, first compound 10 µM
[7] = second compound 0.01 µM, first compound 0.0316 µM
[8] = second compound 0.01 µM, first compound 0.1 µM
[9] = second compound 0.01 µM, first compound 0.316 µM
[10] = second compound 0.01 µM, first compound 1 µM
[11] = second compound 0.01 µM, first compound 3.16 µM
[12] = second compound 0.01 µM, first compound 10 µM
[13] = second compound 0.0316 µM, first compound 0.0316 µM
[14] = second compound 0.0316 µM, first compound 0.1 µM
[15] = second compound 0.0316 µM, first compound 0.316 µM
[16] = second compound 0.0316 µM, first compound 1 µM
[17] = second compound 0.0316 µM, first compound 3.16 µM
[18] = second compound 0.0316 µM, first compound 10 µM
[19] = second compound 0.1 µM, first compound 0.0316 µM
[20] = second compound 0.1 µM, first compound 0.1 µM
[21] = second compound 0.1 µM, first compound 0.316 µM
[22] = second compound 0.1 µM, first compound 1 µM
[23] = second compound 0.1 µM, first compound 3.16 µM
[24] = second compound 0.1 µM, first compound 10 µM
[25] = second compound 0.316 µM, first compound 0.0316 µM
[26] = second compound 0.316 µM, first compound 0.1 µM
[27] = second compound 0.316 µM, first compound 0.316 µM
[28] = second compound 0.316 µM, first compound 1 µM
[29] = second compound 0.316 µM, first compound 3.16 µM
[30] = second compound 0.316 µM, first compound 10 µM
[31] = second compound 1 µM, first compound 0.0316 µM
[32] = second compound 1 µM, first compound 0.1 µM
[33] = second compound 1 µM, first compound 0.316 µM
[34] = second compound 1 µM, first compound 1 µM
[35] = second compound 1 µM, first compound 3.16 µM
[36] = second compound 1 µM, first compound 10 µM

`C=CC(=O)N1CCN(c2nc(=O)n(-c3c(C)ccnc3C(C)C)c3nc(-c4c(O)cccc4F)c(F)cc23)C(C)C1` (stereo unspecified) + CC(Nc1ccc2c(c1)OCCn1cc(N3C(=O)OCC3C(F)F)nc1-2)C(N)=O was tested, and the IC50 (second compound 0.00316 µM) was > 10 µM, the IC50 (second compound 0.01 µM) was > 10 µM and the IC50 (second compound 0.0316 µM) was > 10 µM. The IC50 (second compound 0.1 µM) was > 10 µM, the IC50 (second compound 0.316 µM) was > 10 µM and the IC50 (second compound 1 µM) was 8.26 µM. For the same compound, the viability, T/C [1] was 97.8%, the viability, T/C [2] was 113% and the viability, T/C [3] was 117%. The viability, T/C [4] was 124%, the viability, T/C [5] was 126% and the viability, T/C [6] was 111%. The viability, T/C [7] was 97.5%, the viability, T/C [8] was 99.1% and the viability, T/C [9] was 99.3%. For the same compound, the viability, T/C [10] was 119%, the viability, T/C [11] was 122% and the viability, T/C [12] was 106%. The viability, T/C [13] was 80.3%, the viability, T/C [14] was 86.1% and the viability, T/C [15] was 88.3%. For the same compound, the viability, T/C [16] was 97.8%, the viability, T/C [17] was 99.2% and the viability, T/C [18] was 82.1%. The viability, T/C [19] was 69.8%, the viability, T/C [20] was 71.2% and the viability, T/C [21] was 81.6%. The viability, T/C [22] was 73%, the viability, T/C [23] was 68.5% and the viability, T/C [24] was 59.3%. It also gave a viability, T/C [25] of 68.7%, a viability, T/C [26] of 64.6% and a viability, T/C [27] of 67.8%. The viability, T/C [28] was 68.8%, the viability, T/C [29] was 62.1% and the viability, T/C [30] was 48%. It also gave a viability, T/C [31] of 59.2%, a viability, T/C [32] of 57.7% and a viability, T/C [33] of 62.1%. For the same compound, the viability, T/C [34] was 60.6%, the viability, T/C [35] was 58.1% and the viability, T/C [36] was 40.3%.
For `CC(Cn1ccc(-c2ccc(C#N)c(Cl)c2)n1)NC(=O)c1cc(C(C)O)[nH]n1` (stereo unspecified) + CC(Nc1ccc2c(c1)OCCn1cc(N3C(=O)OCC3C(F)F)nc1-2)C(N)=O, the IC50 (second compound 0.00316 µM) was > 10 µM, the IC50 (second compound 0.01 µM) was > 10 µM and the IC50 (second compound 0.0316 µM) was > 10 µM. For the same compound, the IC50 (second compound 0.1 µM) was > 10 µM, the IC50 (second compound 0.316 µM) was > 10 µM and the IC50 (second compound 1 µM) was > 10 µM. For the same compound, the viability, T/C [1] was 102%, the viability, T/C [2] was 95.6% and the viability, T/C [3] was 104%. It also gave a viability, T/C [4] of 95%, a viability, T/C [5] of 96.5% and a viability, T/C [6] of 88.1%. The viability, T/C [7] was 96%, the viability, T/C [8] was 97.5% and the viability, T/C [9] was 91.8%. For the same compound, the viability, T/C [10] was 94.6%, the viability, T/C [11] was 84.4% and the viability, T/C [12] was 77%. It also gave a viability, T/C [13] of 83.2%, a viability, T/C [14] of 81.7% and a viability, T/C [15] of 82.4%. For the same compound, the viability, T/C [16] was 77%, the viability, T/C [17] was 74.3% and the viability, T/C [18] was 64%. For the same compound, the viability, T/C [19] was 80.1%, the viability, T/C [20] was 69.6% and the viability, T/C [21] was 72%. It also gave a viability, T/C [22] of 69.9%, a viability, T/C [23] of 64.8% and a viability, T/C [24] of 50.3%. For the same compound, the viability, T/C [25] was 63.5%, the viability, T/C [26] was 63.3% and the viability, T/C [27] was 65.1%. The viability, T/C [28] was 61.2%, the viability, T/C [29] was 60.8% and the viability, T/C [30] was 53.6%. The viability, T/C [31] was 66%, the viability, T/C [32] was 56.3% and the viability, T/C [33] was 64.5%. The viability, T/C [34] was 60.2%, the viability, T/C [35] was 56.1% and the viability, T/C [36] was 48.8%.
With `Cn1nccc1Nc1nccc(-c2ccn(C(CO)c3ccc(Cl)c(F)c3)c(=O)c2)n1` (stereo unspecified) + CC(Nc1ccc2c(c1)OCCn1cc(N3C(=O)OCC3C(F)F)nc1-2)C(N)=O the IC50 (second compound 0.00316 µM) was 1.08 µM, the IC50 (second compound 0.01 µM) was 0.618 µM and the IC50 (second compound 0.0316 µM) was 0.27 µM. The IC50 (second compound 0.1 µM) was 0.0888 µM, the IC50 (second compound 0.316 µM) was 0.0669 µM and the IC50 (second compound 1 µM) was < 0.0316 µM. It also gave a viability, T/C [1] of 64.6%, a viability, T/C [2] of 68.1% and a viability, T/C [3] of 56.8%. The viability, T/C [4] was 50.9%, the viability, T/C [5] was 39.6% and the viability, T/C [6] was 26.9%. For the same compound, the viability, T/C [7] was 71.6%, the viability, T/C [8] was 64.4% and the viability, T/C [9] was 52%. It also gave a viability, T/C [10] of 46.9%, a viability, T/C [11] of 39.6% and a viability, T/C [12] of 23%. The viability, T/C [13] was 69.2%, the viability, T/C [14] was 56.4% and the viability, T/C [15] was 47.3%. For the same compound, the viability, T/C [16] was 42.2%, the viability, T/C [17] was 29.4% and the viability, T/C [18] was 20.4%. For the same compound, the viability, T/C [19] was 56.4%, the viability, T/C [20] was 46.6% and the viability, T/C [21] was 43%. For the same compound, the viability, T/C [22] was 40.2%, the viability, T/C [23] was 25.5% and the viability, T/C [24] was 20.8%. It also gave a viability, T/C [25] of 53.4%, a viability, T/C [26] of 48.5% and a viability, T/C [27] of 42.1%. For the same compound, the viability, T/C [28] was 33.4%, the viability, T/C [29] was 26.3% and the viability, T/C [30] was 19%. The viability, T/C [31] was 51.2%, the viability, T/C [32] was 42.3% and the viability, T/C [33] was 38.5%. The viability, T/C [34] was 36.1%, the viability, T/C [35] was 26.6% and the viability, T/C [36] was 16.2%.
